We go through 12 molecules from US20240368191A1, “HETEROCYCLIC COMPOUNDS AND USES THEREOF” (Kumquat Biosciences Inc., priority 2021, published 2024).

Data set [1] deals with T1, KRAS G12D 1-169 (His-tagged, GDP-loaded) (Homo sapiens, UniProt P01116, G12D).
T1 construct: His -tagged GDP-loaded G12D 1-169; made in house; host or cells: E. coli, e.g. BL21 (DE3)
Nature of the data set: Covalent modification of KRAS protein by intact-protein LC-MS. The settings on record: comparable or same conditions as K-Ras G12S. It counts as binding. The procedure: Test compounds are prepared as 10 mM stock solutions in DMSO (Fisher cat #BP231-100). KRAS protein (His -tagged GDP-loaded wildtype 1-169, His -tagged GDP-loaded G12S 1-169 or His -tagged GDP-loaded G12D 1-169) is diluted to ˜2 μM in appropriate buffer (e.g., a Hepes buffer at physiological conditions). For testing KRAS modification, compounds are diluted to 50× final test concentration in DMSO in 96-well storage plates. 2 μl of the diluted 50× compounds are added to appropriate wells in the PCR plate (Fisher cat #AB-0800). ˜49 μl of the stock protein solution is added to each well of the 96-well PCR plate. Reactions are mixed carefully. The plate is sealed well with aluminum plate seal, and stored in drawer at room temperature for 24 hrs. 5 μl of 2% formic acid (Fisher cat #A117-50) in MilliQ H2O is then added to each well followed by mixing with a pipette. The plate is then resealed with aluminum seal and stored until mass spectrometry analysis.
The extent of covalent modification of KRAS proteins was determined by liquid chromatography electrospray mass spectrometry analysis of the intact proteins on a Thermo Q-Exactive Plus mass spectrometer. 20 μl of sample was injected onto a bioZen 3.6 μm Intact C4 column (Phenomenex cat #00B-4767-AN) placed in a column oven set to 40° C. and separated using a suitable LC gradient from ˜20% to ˜60% solvent B. Solvent A was 0.1% formic acid and solvent B was 0.1% formic acid in acetonitrile. HESI source settings were set to 40, 5 and 1 for the sheath, auxiliary and sweep gas flow, respectively. The spray voltage was 4 kV, and the capillary temperature was 320° C. S-lens RF level was 50 and auxiliary gas heater temperature was set to 200° C. The mass spectrometry was acquired using a scan range from 650 to 1750 m/z using positive polarity at a mass resolution of 70,000, AGC target of 1e6 ions and maximum injection time of 250 ms. The recorded protein mass spectrum was deconvoluted from the raw data file using Protein Deconvolution v4.0 (Thermo). The protein mass and adduct masses were exported with their peak intensities. The peak intensities for the unmodified and modified protein were used to calculate the percent covalent modification of the KRAS protein based on the following equation: % KRAS protein modification=((KRAS−compound)/(KRAS)+(KRAS−Compound))*100.

Data set [2] can be described thus: Metabolic (microsomal) stability assay. The settings on record: pooled liver microsomes, pH 7.4. Background: Liver microsomes are a subcellular fraction often used to study metabolism.
Data set [3] is described as follows: in vitro. The note with it: microsomes, pH 7.4.

Each structure is given as a SMILES string.

T1 sequence (P01116 1-169 isoform P01116-2 G12D): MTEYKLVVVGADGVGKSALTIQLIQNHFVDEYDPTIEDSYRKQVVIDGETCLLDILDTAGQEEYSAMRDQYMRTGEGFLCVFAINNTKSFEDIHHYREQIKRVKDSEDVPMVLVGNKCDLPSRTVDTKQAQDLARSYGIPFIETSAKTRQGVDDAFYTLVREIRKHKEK

In the case of `Cc1ncn(C(=O)N2CC3(CCCN(c4nc(OC[C@@]56CCCN5C[C@H](F)C6)nc5c(F)c(-c6ccc(F)c7sc(N)c(C#N)c67)c(Cl)cc45)C3)C2)n1` [Compound A102, 2-amino-4-(6-chloro-8-fluoro-2-(((2R,7aS)-2-fluorotetrahydro-1H-pyrrolizin-7a(5H)-yl)meth-oxy)-4-(2-(3-methyl-1H-1,2,4-triazole-1-carbonyl)-2,6-diaza-spiro[3.5]nonan-6-yl)quinazo-lin-7-yl)-7-fluorobenzo[b]-thiophene-3-carbonitrile], the “covalent labeling of K-Ras G12D” value in data set [1] was “essentially no detectable labeling”. For the same molecule, in data set [2], the half-life (as a rule, the time needed for the level to fall by half in the phase considered) at 0.5 μM was more than 10 min.
Consider `N#Cc1c(N)sc2c(F)ccc(-c3c(Cl)cc4c(N5CC6CCC(C5)N6C(=O)n5ccnc5)nc(OC[C@@]56CCCN5C[C@H](F)C6)nc4c3F)c12` [Compound A105, 4-(4-(8-(1H-imidazole-1-carbonyl)-3,8-diazabicyclo-[3.2.1]octan-3-yl)-6-chloro-8-fluoro-2-(((2R,7aS)-2-fluoro-tetrahydro-1H-pyrrolizin-7a(5H)-yl)methoxy)quinazolin-7-yl)-2-amino-7-fluorobenzo-[b]thiophene-3-carbonitrile], for which the half-life at 0.5 μM in data set [3] is more than 10 min.
In data set [3], `Nc1nc2c(-c3c(Cl)cc4c(N5CC6CCC(C5)N6C(=O)n5cncn5)nc(OC[C@@]56CCCN5C[C@H](F)C6)nc4c3F)ccc(F)c2s1` [Compound A111, (3-(7-(2-amino-7-fluorobenzo-[d]thiazol-4-yl)-6-chloro-8-fluoro-2-(((2R,7aS)-2-fluoro-tetrahydro-1H-pyrrolizin-7a(5H)-yl)methoxy)quinazolin-4-yl)-3,8-diazabicyclo[3.2.1]-octan-8-yl)(1H-1,2,4-triazol-1-yl)methanone] showed a half-life at 0.5 μM of more than 10 min.
For `Cc1ncn(C(=O)N2CC3(C2)CN(c2nc(OC[C@@]45CCCN4C[C@H](F)C5)nc4c(F)c(-c5ccc(F)c6sc(N)c(C#N)c56)c(Cl)cc24)CCO3)n1` [Compound A148, 2-amino-4-(6-chloro-8-fluoro-2-(((2R,7aS)-2-fluorotetrahydro-1H-pyrrolizin-7a(5H)-yl)-methoxy)-4-(2-(3-methyl-1H-1,2,4-triazole-1-carbonyl)-5-oxa-2,8-diazaspiro[3.5]nonan-8-yl)quinazolin-7-yl)-7-fluoro-benzo[b]thiophene-3-carbonitrile], in data set [1], the “covalent labeling of K-Ras G12D” value is recorded as “essentially no detectable labeling”. The molecule further yielded a half-life at 0.5 μM in data set [2] of more than 10 min.
On to `CN1CCC[C@H]1COc1nc(N2CCOC3(CN(C(=O)n4cncn4)C3)C2)c2cc(Cl)c(-c3ccc(F)c4sc(N)c(C#N)c34)c(F)c2n1` [Compound A182, 4-(4-(2-(1H-1,2,4-triazole-1-carbonyl)-5-oxa-2,8-diazaspiro-[3.5]nonan-8-yl)-6-chloro-8-fluoro-2-(((S)-1-methylpyrrol-idin-2-yl)methoxy)quinazolin-7-yl)-2-amino-7-fluorobenzo-[b]thiophene-3-carbonitrile], for which, in data set [1], the “covalent labeling of K-Ras G12D” value is given as “essentially no detectable labeling”. This molecule came in with a half-life at 0.5 μM in data set [2] of more than 10 min.
For `N#Cc1c(N)sc2c(F)ccc(-c3c(Cl)cc4c(O[C@@H]5CCN(C(=O)n6cncn6)C5)nc(OCC56CCCN5C[C@H](F)C6)nc4c3F)c12` (stereo partly drawn) [Compound A213, 4-(4-(((R)-1-(1H-1,2,4-triazole-1-carbonyl)pyrrolidin-3-yl)oxy)-6-chloro-8-fluoro-2-(((2R)-2-fluorotetrahydro-1H-pyrrolizin-7a(5H)-yl)methoxy)quinazolin-7-yl)-2-amino-7-fluorobenzo-[b]thiophene-3-carbonitrile], in that order: “essentially no detectable labeling” and more than 10 min.
In the case of `C[C@H](Oc1nc(N2CCCCC3(CN(C(=O)n4cncn4)C3)C2)c2cc(Cl)c(-c3ccc(F)c4sc(N)c(C#N)c34)c(F)c2n1)[C@@H]1CCCN1C` [Compound A219, 4-(4-(2-(1H-1,2,4-triazole-1-carbonyl)-2,6-diazaspiro[3.6]-decan-6-yl)-6-chloro-8-fluoro-2-((S)-1-((S)-1-methylpyrrol-idin-2-yl)ethoxy)quinazolin-7-yl)-2-amino-7-fluorobenzo-[b]thiophene-3-carbonitrile], in data set [1], the “covalent labeling of K-Ras G12D” value was “essentially no detectable labeling”. In data set [2], this molecule had a half-life at 0.5 μM of more than 10 min.
For the molecule `Nc1nc2c(-c3c(Cl)cc4c(N5CCOC6(CCN(C(=O)n7cncn7)C6)C5)nc(OC[C@@]56CCCN5C[C@H](F)C6)nc4c3F)ccc(F)c2s1` (stereo partly drawn) [Compound A221, (9-(7-(2-amino-7-fluorobenzo-[d]thiazol-4-yl)-6-chloro-8-fluoro-2-(((2R,7aS)-2-fluoro-tetrahydro-1H-pyrrolizin-7a(5H)-yl)methoxy)quinazolin-4-yl)-6-oxa-2,9-diazaspiro[4.5]-decan-2-yl)(1H-1,2,4-triazol-1-yl)methanone], the “covalent labeling of K-Ras G12D” value in data set [1] is given as “essentially no detectable labeling”. Also, the half-life at 0.5 μM in data set [2] was more than 10 min.
As to `CN(C)C1CN(c2nc(N3CCOC4(CN(C(=O)n5cncn5)C4)C3)c3cc(Cl)c(-c4ccc(F)c5sc(N)c(C#N)c45)c(F)c3n2)C1` [Compound A256, 4-(4-(2-(1H-1,2,4-triazole-1-carbonyl)-5-oxa-2,8-diazaspiro[3.5]nonan-8-yl)-6-chloro-2-(3-(dimethylamino)azetidin-1-yl)-8-fluoroquinazolin-7-yl)-2-amino-7-fluorobenzo[b]thiophene-3-carbonitrile], the “covalent labeling of K-Ras G12D” value in data set [1] was “essentially no detectable labeling”. In data set [2], the half-life at 0.5 μM was more than 10 min.
In the case of `N#Cc1c(N)sc2c(F)ccc(-c3c(Cl)cc4c(N5CC6CCCN(C(=O)n7cncn7)C6C5)nc(OC[C@@]56CCCN5C[C@H](F)C6)nc4c3F)c12` (stereo partly drawn) [Compound A284, 4-(4-(1-(1H-1,2,4-triazole-1-carbonyl)octahydro-6H-pyrrolo-[3,4-b]pyridin-6-yl)-6-chloro-8-fluoro-2-(((2R,7aS)-2-fluoro-tetrahydro-1H-pyrrolizin-7a(5H)-yl)methoxy)quinazolin-7-yl)-2-amino-7-fluorobenzo-[b]thiophene-3-carbonitrile], in data set [2], the half-life at 0.5 μM was more than 10 min.
As to `Nc1nc2c(-c3c(Cl)cc4c(N5CCC56CCN(C(=O)n5cncn5)CC6)nc(OC[C@@]56CCCN5C[C@H](F)C6)nc4c3F)ccc(F)c2s1` [Compound A288, (1-(7-(2-amino-7-fluorobenzo-[d]thiazol-4-yl)-6-chloro-8-fluoro-2-(((2R,7aS)-2-fluoro-tetrahydro-1H-pyrrolizin-7a(5H)-yl)methoxy)quinazolin-4-yl)-1,7-diazaspiro[3.5]nonan-7-yl)(1H-1,2,4-triazol-1-yl)-methanone], the half-life at 0.5 μM in data set [2] was more than 10 min.
Regarding `CC1(C)CN(c2nc(OC[C@@]34CCCN3C[C@H](F)C4)nc3c(F)c(-c4ccc(F)c5sc(N)c(C#N)c45)c(Cl)cc23)CC2(CN(C(=O)n3cncn3)C2)O1` [Compound A296, 2-amino-4-(6-chloro-4-(6,6-dimethyl-2-(1H-1,2,4-triazole-1-carbonyl)-5-oxa-2,8-diaza-spiro[3.5]nonan-8-yl)-8-fluoro-2-(((2R,7aS)-2-fluorotetrahydro-1H-pyrrolizin-7a(5H)-yl)meth-oxy)quinazolin-7-yl)-7-fluoro-benzo[b]thiophene-3-carbonitrile], the “covalent labeling of K-Ras G12D” value in data set [1] is recorded as “essentially no detectable labeling”. Besides, the half-life at 0.5 μM in data set [2] is more than 10 min.
